Assay results from PubChem BioAssay (NCI).
“And” between values parts separate entries of the source, which are not always exact repeats. Equal values may be shown once.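 Results reflect a 48-hour exposure of cells in 96-well plates to compound at five concentrations. At the GI50, growth is halved. TGI is the concentration that stops growth completely.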

Columns and labels:
Experiment in all cases: NCI anticancer screen, dose series, 48 h
HOP-62 NSCLC = system: HOP-62 NSCLC
HOP-92 NSCLC = system: HOP-92 NSCLC
K-562 leukemia = system: K-562 leukemia
M14 melanoma = system: M14 melanoma
NCI-H23 lung = system: NCI-H23 lung
OVCAR-3 ovarian = system: OVCAR-3 ovarian
OVCAR-4 ovarian = system: OVCAR-4 ovarian
SK-MEL-5 melanoma = system: SK-MEL-5 melanoma
UACC-257 melanoma = system: UACC-257 melanoma
MDA-MB-435 = system: MDA-MB-435

Compound	TGI (HOP-62 NSCLC)	TGI (HOP-92 NSCLC)	TGI (K-562 leukemia)	TGI (M14 melanoma)	TGI (NCI-H23 lung)	TGI (OVCAR-3 ovarian)	TGI (OVCAR-4 ovarian)	TGI (SK-MEL-5 melanoma)	TGI (UACC-257 melanoma)	GI50 (HOP-62 NSCLC)	GI50 (K-562 leukemia)	GI50 (M14 melanoma)	GI50 (MDA-MB-435)	TGI (MDA-MB-435)	GI50 (NCI-H23 lung)	GI50 (OVCAR-3 ovarian)	GI50 (OVCAR-4 ovarian)	GI50 (SK-MEL-5 melanoma)	GI50 (UACC-257 melanoma)	GI50 (HOP-92 NSCLC)
O=[P+](O)c1ccccn1	> 100 µM	> 100 µM	> 100 µM	> 100 µM	> 100 µM	> 100 µM	> 100 µM	> 100 µM	> 100 µM											
Cc1cccc(C)c1NC(=O)CCc1nnc2s/c(=C\c3ccc(N(C)C)cc3)c(=O)n12	> 100 µM	> 100 µM	> 100 µM	> 100 µM	> 100 µM	> 100 µM	> 100 µM	> 100 µM	> 100 µM											
Cc1cc(N(CCC#N)CCC#N)ccc1N=Nc1cc(Cl)ccc1Cl	35.3 µM		11.4 µM	11.4 µM	28.1 µM	18.2 µM	10.3 µM	30.3 µM	23.8 µM											
C/C(=N\NC(N)=S)c1ccc(C)c(C)c1	> 100 µM	> 100 µM	> 100 µM	> 100 µM	> 100 µM	66.7 µM	> 100 µM	> 100 µM	> 100 µM											
O=c1c2cc(Br)cc(Br)c2nc(CCCl)n1-c1ccc(O)c([N+](=O)[O-])c1	33 µM	52.2 µM	61.9 µM	31.9 µM	46.5 µM	33.7 µM	29 µM	35.6 µM	29.4 µM											
CCOC(=O)C1C=C2O[C@@H]3OC4(CCCCC4)O[C@@H]3C2C2C(=O)CCC(=O)[C@@]12C(=O)OC (some centres not stated)	> 100 µM	> 100 µM	> 100 µM	> 100 µM	> 100 µM	> 100 µM	> 100 µM	> 100 µM	> 100 µM											
O=C(Cc1nc2sc3c(c2c(=O)[nH]1)CCCC3)Nc1ccccc1	> 100 µM	> 100 µM	> 100 µM	> 100 µM	> 100 µM	> 100 µM	> 100 µM	> 100 µM												
Cc1cc(-c2nnc(/C=C/c3ccc4c(c3)OCO4)o2)n[nH]1	> 50 µM		> 50 µM	21.1 µM	> 50 µM	20.7 µM	> 50 µM	39 µM	> 50 µM	17.5 µM	1.83 µM	6.32 µM	0.915 µM	2.52 µM	11.9 µM	4.6 µM	23.7 µM	13 µM	23 µM	
CCCCCCCCCCCCCCCCCCNCc1ccc(Cl)cc1	12.8 µM	5.45 µM		7.04 µM	12 µM	11 µM	4.76 µM	30.3 µM	36 µM	3.17 µM		2.28 µM	3.45 µM	15.6 µM	3.07 µM	3.07 µM	1.99 µM	15.7 µM	18.6 µM	1.83 µM
C[C@H]1C/C=C/[C@H]2[C@@H]3O[C@]3(C)[C@@H](C)[C@H]3[C@H](Cc4ccccc4)NC(=O)[C@]32OC(=O)O/C=C/[C@@](C)(O)C1=O	0.185 µM and 0.164 µM and 0.067 µM	0.0591 µM and 0.0877 µM	91.2 µM and 125 µM and > 250 µM	25.4 µM			> 79.2 µM and 46.3 µM and > 250 µM		29.9 µM and 24.1 µM and 49.8 µM	0.0125 µM and 0.025 µM	0.0125 µM and 0.025 µM				0.17 µM and 0.13 µM	0.025 µM	0.396 µM	0.0539 µM and 0.0351 µM	0.127 µM and 0.0594 µM	
CCc1cccc(C(C)C)c1NC(=O)CCl		> 100 µM	> 100 µM	> 100 µM	> 100 µM	> 100 µM			> 100 µM											
CCCCC(C)/C=C/C(=O)C1=C(O)/C(=C/C(=O)O)OC1=O (configuration not stated)	> 100 µM		> 100 µM	> 100 µM	> 100 µM	> 100 µM	> 100 µM	> 100 µM	> 100 µM											
C/C(=N\NC(=O)C[N+](C)(C)C)c1sc(-c2cccnc2)nc1C	> 100 µM	> 100 µM	> 100 µM	> 100 µM	> 100 µM	> 100 µM		> 100 µM	> 100 µM											
Cc1coc2c1C(=O)C(=O)c1ccccc1-2	3 µM	1.28 µM	1.44 µM	2.63 µM	4.09 µM	3.29 µM	3.22 µM	1.92 µM	0.542 µM											
CC(=O)Oc1ccc2c(c1)[C@@]1(C)CCCC(C)(C)[C@@H]1CC2	30.2 µM	41.9 µM	> 100 µM	33.7 µM	37.6 µM	41.1 µM		73.6 µM	43.6 µM	15.9 µM	40 µM	18.2 µM	16.8 µM	40 µM	19.8 µM	15.8 µM		30.9 µM	18.2 µM	21.7 µM
COC(=O)CCC(=O)N1C/C(=C\c2ccccc2)C(=O)/C(=C/c2ccccc2)C1	28.7 µM	18.7 µM	> 100 µM	3.93 µM	4.35 µM	5.01 µM	4.92 µM	5.44 µM	4.11 µM											
N#Cc1ccc(/C=C(/C(=O)c2ccccc2)c2ccccc2)cc1	40.2 µM	39.7 µM	> 24.7 µM	27.8 µM	35.2 µM	48.4 µM	26.9 µM	26.8 µM	29.6 µM											
S=c1o[nH]c(-c2ccccc2)c1C=Nc1ccccc1			> 100 µM	> 100 µM	> 100 µM		> 100 µM	> 100 µM	> 100 µM											
Cn1c(=O)nc2n(-c3ccc(Cl)cc3)c(-c3ccccc3)c(-c3ccccc3)nc-2c1=O	66.7 µM	84.5 µM	> 100 µM	45.5 µM	> 100 µM	82.1 µM	> 100 µM	53.5 µM	66.9 µM											
O=c1c2ccccc2[nH]c2c(O)ccc(O)c12	> 100 µM	34.5 µM	56.3 µM	30.3 µM	71.5 µM	36.1 µM	18.5 µM		34.6 µM											
O=C1/C(=C/c2ccc3c(c2)OCCO3)CCC/C1=C\c1ccc2c(c1)OCCO2	92.1 µM	> 100 µM		41.3 µM		44.6 µM	61 µM	80 µM	59.7 µM											
